One assay deals with P. acnes NCTC 737. Briefly: Minimum bactericidal concentration (MBC) assay. The class given is cell-based, Propionibacterium acnes. The settings on record: compound in DMSO, triplicate. How it is done: The first test micro-organism used was Propionibacterium acnes NCTC 737. This is a propionibacterial strain and is the type strain of the […]; it is fully susceptible to antibiotics.
The propionibacteria were cultured and maintained on Wilkins-Chalgren Anaerobe Medium (agar and broth) at pH 6.0; all cultures were incubated anaerobically at 37° C. for 72 hours.
This assay, normally carried out after an MIC assay, determines the minimum concentration of a compound that is lethal to the micro-organism being tested.
These samples were then individually sub-cultured on antibiotic-free agar medium, under the incubation conditions described above. Following incubation they were examined visually for microbial growth.
DDA assays, as described above, were carried out using as the test formulation the gel prepared in Example 2B above. Also tested was the Example 2B gel minus the Klucel™ thickener, which was also subjected to MIC and MBC assays. For the DDAs, which were performed in triplicate, 100 μl of the relevant formulation was loaded onto each disc, and zones of inhibition were recorded after 3 days' anaerobic incubation at 37° C. The MIC and MBC tests were performed in duplicate and the results recorded after 3 days and 7 days respectively, post-subculture onto drug-free medium.
The compounds copper (II) usnate (Just for Today Ltd), sodium usnate (Yick-Vic Chemicals) and usnic acid (Sigma-Aldrich) were tested against P. acnes NCTC 737, using MIC, MBC and DDA assays as described above. For copper usnate and usnic acid, supplemented DDA assays were also carried out. DMSO was used as the solvent for all three test compounds. For the DDAs, 200 μg of the relevant test compound was loaded onto each disc. The MIC and MBC assays were conducted in triplicate, as were the DDAs for copper usnate.

The subject of the next assay is S. aureus ATCC 29213. Nature of the assay: MIC assay. The class given is cell-based, Staphylococcus aureus. Particulars: Mueller-Hinton broth pH 7.0. The text has this:
(a) staphylococci. The Staphylococcus aureus strain used was ATCC 29213. S. aureus and other staphylococci are common causes of a wide range of skin, skin structure and wound infections; S. aureus is also known to exacerbate eczema. The ATCC 29213 strain is known to be susceptible to beta-lactam antibiotics such as methicillin. The Staphylococcus epidermidis strain used was NCTC 11047. Staph. epidermidis forms part of the resident flora of skin and is an opportunistic pathogen which can cause biofilms to grow for instance on plastic surgical implants such as catheters. Unless otherwise stated, the staphylococci were cultured and maintained on Mueller-Hinton Medium (agar and broth) at pH 7.2; cultures were incubated aerobically at 37° C. for 19-20 hours, at pH 7 (±0.2). (b) C. striatum NCTC 764. Corynebacterium striatum is closely related to organisms (aerobic diphtheroids of the genus Corynebacterium) that cause body odour. It was cultured and maintained on Mueller-Hinton medium (agar and broth). All cultures were incubated aerobically at 37° C. for 72 hours, at pH 7 (±0.2). (c) streptococci. The strains tested were S. mutans ATCC 25175 and S. pyogenes ATCC 12344. S. mutans is a Gram-positive, microaerophilic bacterium which plays a significant role in dental caries and in infective endocarditis. […]
This is a standard international method for quantitatively assessing the antimicrobial activity of a compound in a liquid medium. […]
The wells were inoculated with a liquid suspension of freshly grown micro-organism and incubated under the conditions described above. […] The MIC value was recorded as the lowest concentration of test compound required to inhibit microbial growth, ie the lowest concentration for which the liquid in the well remained clear. […]
Example 8 was repeated (except for the supplemented DDA assays), using S. aureus ATCC 29213 as the test organism. […] In the DDA assays, 200 μg is of each compound was loaded onto each disc: the culture medium was Mueller-Hinton agar at pH 7.0, and results were recorded after overnight incubation at 37° C. in air. […]

In brackets after ≈: the same amount, converted by molar mass. Like-named read-outs stand apart in the source and are kept apart here.

Regarding `CC(=O)c1c([O-])c(C)c([O-])c2c1OC1=CC(=O)C(C(C)=O)C(=O)C12C.[Cu+2]` (stereo not shown) [Copper usnate, copper (II) usnate], the MBC with P. acnes NCTC 737 amounted to 1.95 µg/mL. This compound also displayed a minimal inhibitory concentration (MIC) in the assay with S. aureus ATCC 29213 of 7.8 µg/mL.

For the compound `CC(=O)c1c(O)c(C)c(O)c2c1OC1=CC(=O)C(C(C)=O)C(=O)C12C` (stereo not shown) [Usnic acid, 2,6-diacetyl-7,9-dihydroxy-8,9b-dimethyl-1,3(2H,9bh)-dibenzofurandione], the minimum bactericidal concentration (MBC) in the assay on P. acnes NCTC 737 (Cutibacterium acnes, NCTC737, read-out: MBC) came out at 31.2 µg/mL (≈ 90.8 µM). The MIC with S. aureus ATCC 29213 (Staphylococcus aureus, ATCC29213, read-out: MIC) came to 31.2 µg/mL (≈ 90.8 µM).

(Values after patent US20120270935A1, “FORMULATIONS” (priority 2009, published 2012).)
